Source: publication PMC9180621, “Preparation of Novel Pyrazolo[4,3-e]tetrazolo[1,5-b][1,2,4]triazine Sulfonamides and Their Experimental and Computational Biological Studies” (International Journal of Molecular Sciences, 2022)

Key:
[1] = system: PC-3 cells; experiment: Annexin V-FITC/propidium iodide flow cytometry, apoptosis; assay type: cell-based, human; conditions: PC-3, 48 h incubation, Annexin V-FITC, ± SD, control 8.37 ± 1.06%
Description: (§1) Data are presented as mean percentage of apoptotic cells (early and late apoptotic) ± SD values. The differences between the experimental samples and vehicle control were evaluated by the ANOVA test followed by Tukey’s test (p < 0.05). Experiments were performed in triplicate. For flow cytometry analysis with Annexin V-FITC staining, the approximate number of analyzed cells was (N = 1 × 10^4), contrasting with the dual acridine orange/ethidium bromide (AO/EB) fluorescent staining (N = 200).
(§2) The Annexin V-FITC Apoptosis Detection Kit was used to estimate the apoptosis induction following 24 and 48 h incubation with the tested MM-compounds. During apoptosis, phosphatidylserine is transformed from the inner cell membrane to the cell surface, which can be detected by the annexin-FITC complex. The addition of propidium iodide to the reaction mixture allows the assessment of cell membrane integrity. Using flow cytometry analysis, four subpopulations of cells can be distinguished: alive (non-stained), necrotic (propidium iodide stained), early apoptotic (annexin V stained cells), or late-apoptotic cells (propidium iodide and annexin V stained). BxPC-3 and PC-3 cells were seeded at appropriate density on a 6-well plate (Table 9).
(§3) The experimental design included vehicle control (final solvent concentration was < 0.5% v/v DMSO), and cells treated with 2 µM SN-38 (active metabolite of irinotecan) used as a positive compensation control. Cells were left for incubation for another 24 or 48 h (37 °C; 5% CO2). After exposure, cells were trypsinized and transferred to cytometric tubes, left for 40 min, and centrifuged at 1400 rpm for 10 min at 4 °C. Afterward, the supernatant was removed, and the precipitate was diluted in 1 mL of PBS. The rest of the procedure was performed according to the manufacturer’s instructions. The results were obtained from three independent experiments.

[2] = system: BxPC-3 cells; experiment: as above; assay type: cell-based, human; conditions: IC50 concentration, Annexin V-FITC, ± SD
Description: as §1, §2, §3

[3] = system: PC-3 cells; experiment: Dual acridine orange/ethidium bromide (AO/EB) fluorescent staining, apoptosis; assay type: cell-based, human; conditions: PC-3, 48 h incubation, control 1.5 ± 0.7%; for mean % of apoptotic cells: AO/EB, ± SD; for % of apoptotic cells, both tested concentrations: IC50 and 2xIC50, AO/EB
Description: (§4) Data are presented as mean percentage of apoptotic cells (early and late apoptotic) ± SD values. The differences between the experimental samples and vehicle control were evaluated by the ANOVA test followed by Tukey’s test (p < 0.05). Experiments were performed in triplicate. For flow cytometry analysis with Annexin V-FITC staining, the approximate number of analyzed cells was (N = 1 × 10^4), contrasting with the dual acridine orange/ethidium bromide (AO/EB) fluorescent staining (N = 200). Acridine orange/ethidium bromide (AO/EB) staining is used to detect nuclear alterations and the development of apoptotic bodies, which are both indicative of apoptosis. Acridine orange penetrates into living cells, emitting green fluorescence after intercalation into DNA. The second dye, ethidium bromide, emits red fluorescence in cells with an altered cell membrane. The cells are divided into three categories as follows: living cells (green nucleus with red orange cytoplasm); apoptotic (green irregularly nuclei with chromatin condensation or fragmentation); and necrotic cells (uniformly orange-stained cell nuclei). Programmed cell death is measured by counting the number of cells that undergo apoptosis under a fluorescent microscope. BxPC-3 and PC-3 cells were seeded at an appropriate density on 12-well plates (Table 9). […] Following the incubation period, cells were incubated with fluorochromes (AO/EB: 100 µM; 1:1, v/v) for 5 min at 37 °C in the dark. Viable, apoptotic, or necrotic cells were distinguished using this method based on differential uptake of fluorescent DNA-binding dyes (AO/EB) with the structural aspect of chromatin condensation in the stained nucleus. Cells were analyzed using a fluorescence microscope (Olympus BX60 F5 Olympus Optical Co., Ltd., Nagano, Japan) at 360 nm. The results were obtained from three independent experiments.

[4] = system: BxPC-3 cells; experiment: as above; assay type: cell-based, human; conditions: for increase in the apoptotic cell fraction: BxPC-3, both tested concentrations (IC50, 2xIC50), 24 and 48 h incubation
Description: as §4

[5] = system: PC-3 cells; experiment: MTT assay, cell viability; assay type: cell-based, human; conditions: for IC50: Homo sapiens, PC-3, 72 h incubation, MTT, ± SD
Description: (§5) A statistical program (Graphpad Prism 7) was used to analyze obtained data (MTT test). The dose–response analysis was performed to estimate the inhibitory concentration (IC50) of the tested compounds. The IC50 value is defined as a concentration of the tested compound that leads to a reduction in cell pool viability by 50% compared to the negative control (accepted as 100%). % cell viability=Absorbance value of treated cells−Absorbance value of blank/Absorbance value of untreated cells−Absorbance value of blank×100%
(§6) To estimate cell viability following 72 h incubation with the tested MM-compounds (MM134, MM136, MM137, and MM139), the MTT test was used according to the PN-EN ISO 10993-5. It is a quantitative method based on the tetrazolium yellow dye MTT [3(4,5-dimethyl-2-thiazolyl)-2,5-diphenyl-2H-tetrazolium bromide], which is converted by living cells to a purple product, formazan, the concentration of which was measured colorimetrically. The MTT assay was performed according to the procedure described by Mosmann with modifications. At a density of approximately 8 × 10^3 cells per 100 µL/well, 96-well plates were seeded. Following the given incubation period in controlled conditions (37 °C; 5% CO2), cells were exposed to different concentrations of tested compounds in DMSO (range 0.05–3 µM) in a volume of 100 µL medium per well. Final solvent concentration of DMSO was < 0.5% v/v. The experimental design included vehicle controls and blanks (wells without cells).
(§7) After 72 h of incubation of cells with tested MM-compounds, 20 µL of MTT tetrazolium salt (5 mg/mL in PBS) was added to each well, and plates were incubated once again in a humidified atmosphere for 3 h (37 °C; 5% CO2). Following the incubation time, the solutions were removed and 100 µL of DMSO was added to dissolve the formazan complexes. Subsequently, a spectrophotometer (microplate reader Power Wave XS BioTek Instruments, Inc., Winooski, VT, USA) reading was performed at 570 nm. The experiments were performed in duplicates.

[6] = system: L929 cells; experiment: MTT assay, cell viability; assay type: cell-based; conditions: L929 normal mouse fibroblasts, 72 h incubation, ± SD
Description: as §5, §6, §7

[7] = system: BxPC-3 cells; experiment: MTT assay, cell viability; assay type: cell-based; conditions: Homo sapiens, BxPC-3, 72 h incubation, ± SD
Description: as §5, §6, §7

[8] = system: WI-38 cells; experiment: MTT assay, cell viability; assay type: cell-based; conditions: WI-38 normal human fibroblasts, 72 h incubation, ± SD
Description: as §5, §6, §7

[9] = BxPC-3, 24 h incubation, control 10.3 ± 2.09%
[10] = BxPC-3, 48 h incubation, control 8.3 ± 1.13%

Row | SMILES | mean percentage of apoptotic cells (early and late apoptotic) ([1]; 2xIC50 concentration) [%] | mean percentage of apoptotic cells (early and late apoptotic) [2, 9] [%] | mean percentage of apoptotic cells (early and late apoptotic) [2, 10] [%] | mean % of apoptotic cells ([3]; 2xIC50 concentration) [%] | mean % of apoptotic cells ([3]; IC50 concentration) [%] | increase in the apoptotic cell fraction [4] | IC50 [5] [nM] | times higher cytotoxic activity in PC-3 compared to normal human fibroblasts (WI-38) ([5]; ratio of MTT IC50, PC-3 vs WI-38) [times] | IC50 [6] [nM] | IC50 [7] [nM] | IC50 [8] [nM] | mean percentage of apoptotic cells (early and late apoptotic) ([1]; IC50 concentration) [%] | % of apoptotic cells, both tested concentrations [3] | increase in apoptotic fraction ([4]; BxPC-3, IC50 concentration, 24 h incubation)
1 | Cc1nn(-c2ccc(S(=O)(=O)NCCN3CCOCC3)cc2)c2nn3nnnc3nc12 [MM134] | 20.37 ± 2.5 | 65.3 ± 9.1 | 86.9 ± 1.16 | 11 ± 1.41 | 8.5 ± 0.7 | statistically significant increase | 160 ± 20 | 4 | 580 ± 5 | 320 ± 100 | 650 ± 70 | – | – | –
2 | Cc1nn(-c2ccc(S(=O)(=O)N3CCN(C)CC3)cc2)c2nn3nnnc3nc12 [MM137] | 38.93 ± 4 | 18.9 ± 2.95 | 40.8 ± 1.36 | 24 ± 1.41 | 15 ± 2.82 | – | 110 ± 7 | – | 180 ± 0.8 | 160 ± 40 | 270 ± 40 | 22.57 ± 3.18 | statistically significant increase | did not induce a significant increase
3 | Cc1nn(-c2ccc(S(=O)(=O)N3CCCCC3)cc2)c2nn3nnnc3nc12 [MM139] | 15 ± 2.42 | 59.6 ± 7.42 | 85.4 ± 6.25 | 12.5 ± 0.7 | 13.5 ± 3.53 | statistically significant increase | 170 ± 3 | – | 260 ± 20 | 330 ± 140 | 540 ± 60 | – | statistically significant increase | –
